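Compound exposure: 48 hours, 5 concentrations, 96-well plates. At the GI50, growth is halved.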 Calls of active or inactive are those of the source. Cut-off read from the data, not from the text of the source: active = GI50 up to about 1.1 µM and inactive = higher.

Among the test systems are ACHN; HT-29; OVCAR-8; KM12; OVCAR-4; SF-295; HCC 2998; IGROV-1; M14; CAKI-1; HCT-116; UACC-62; 786-0; LOX IMVI; NCI-H460; HOP-92; TK-10.
Experiment in all cases: NCI-60 cell line screen, 48 h

For the molecule `COc1cc2c(cc1OC)C(=O)C(C1=C(SC(=N)N)C(=O)c3cc(OC)c(OC)cc31)C2` (stereo unspecified), the GI50 in the experiment on ACHN is > 100 µM (inactive); in the experiment on HT-29, > 100 µM (inactive); with OVCAR-8, > 100 µM (inactive); in the experiment on KM12, > 100 µM (inactive); in the experiment on OVCAR-4 it was 78.9 µM (inactive); in the experiment on SF-295, > 100 µM (inactive). In addition, the GI50 in the experiment on HCC 2998, in the experiment on IGROV-1, with M14, in the experiment on CAKI-1, in the experiment on HCT-116 and in the experiment on UACC-62 was > 100 µM (inactive) each time. The GI50 with 786-0, in the experiment on LOX IMVI and in the experiment on NCI-H460 was > 100 µM (inactive) throughout.
Turning to `CCOC(=O)N[C@@H]1C(CC(=O)OC)O[C@H]2OC(C)(C)O[C@H]21` (stereo partly specified), the GI50 with ACHN, with HT-29, in the experiment on KM12, in the experiment with OVCAR-4, in the experiment with SF-295 and in the experiment on HCC 2998 was > 100 µM (inactive) in each case. The GI50 in the experiment with IGROV-1, in the experiment on M14, in the experiment on CAKI-1, with UACC-62, in the experiment on 786-0 and with HOP-92 was > 100 µM (inactive) in each case. Besides, the GI50 in the experiment with LOX IMVI and in the experiment with NCI-H460 was > 100 µM (inactive) throughout.
In the case of `Cc1cc2c(=O)c3ccc(Cl)cc3[nH]c2c(C(N)=O)c1C`, the GI50 in the experiment on ACHN, with HT-29, with OVCAR-8, in the experiment on KM12, in the experiment with OVCAR-4 and in the experiment with SF-295 was > 100 µM (inactive) each time. Moreover, the GI50 with HCC 2998, with IGROV-1, in the experiment on M14, in the experiment on TK-10, in the experiment with HCT-116 and with UACC-62 was > 100 µM (inactive) in each case. The GI50 in the experiment on 786-0, with HOP-92, in the experiment with LOX IMVI and in the experiment on NCI-H460 was > 100 µM (inactive) each time.
In the case of `COC(=O)/C(C#N)=C(\N)C(Cl)(Cl)Cl`, the GI50 was 2.37 µM (inactive) in the experiment on ACHN; 2.15 µM (inactive) in the experiment on OVCAR-8; 4.32 µM (inactive) with KM12; 2.67 µM (inactive) in the experiment with OVCAR-4; 5.09 µM (inactive) with SF-295; 3.06 µM (inactive) with HCC 2998. Moreover, the GI50 in the experiment with M14 is 1.43 µM (inactive); in the experiment on CAKI-1 it was 5.4 µM (inactive); in the experiment with TK-10 it was 2.55 µM (inactive); in the experiment on HCT-116, 0.643 µM (active); in the experiment with UACC-62, 1.37 µM (inactive); in the experiment on 786-0, 4.11 µM (inactive). Moreover, the GI50 in the experiment with HOP-92 is 2.99 µM (inactive); in the experiment with LOX IMVI, 2.65 µM (inactive); in the experiment with NCI-H460, 4.33 µM (inactive).
As for `CC1OC(OC2CCCc3c(O)c4c(c(O)c32)C(=O)c2ccccc2C4=O)CC(N)C1O` (stereo unspecified), the GI50 in the experiment on ACHN is 1.88 µM (inactive); in the experiment on HT-29 it was 1.47 µM (inactive); with OVCAR-8, 1.42 µM (inactive); with KM12 it was 1.58 µM (inactive); with OVCAR-4, 1.68 µM (inactive); with SF-295 it was 1.82 µM (inactive). Further, the GI50 was 2.07 µM (inactive) in the experiment with HCC 2998; 1.69 µM (inactive) with IGROV-1; 1.79 µM (inactive) in the experiment on M14; 1.43 µM (inactive) in the experiment on CAKI-1; 1.6 µM (inactive) in the experiment with TK-10; 1.72 µM (inactive) in the experiment on HCT-116. Also, the GI50 in the experiment with 786-0 is 1.29 µM (inactive); in the experiment on HOP-92 it was 1.43 µM (inactive); with LOX IMVI, 1.61 µM (inactive); in the experiment with NCI-H460, 1.43 µM (inactive).
In the case of `Cc1c(C(=O)CSc2nc3cc([N+](=O)[O-])ccc3[nH]2)c(=O)n(-c2ccccc2)n1C`, the GI50 in the experiment on ACHN, in the experiment with HT-29, with OVCAR-8, in the experiment on KM12, in the experiment with OVCAR-4 and in the experiment with SF-295 was > 100 µM (inactive) each time. The GI50 was 36.6 µM (inactive) in the experiment with HCC 2998; > 100 µM (inactive) in the experiment with IGROV-1; > 100 µM (inactive) in the experiment with M14; > 100 µM (inactive) in the experiment on CAKI-1; > 100 µM (inactive) with TK-10; > 100 µM (inactive) with HCT-116. For the same molecule, the GI50 in the experiment with 786-0, with HOP-92, in the experiment on LOX IMVI and in the experiment on NCI-H460 was > 100 µM (inactive) throughout.
`O=C1CC2(C[C@@H]3CCCCCCCCC[C@@H](C3)C2)N1` (stereo partly specified): the GI50 in the experiment with ACHN is 15.5 µM (inactive); in the experiment with HT-29 it was 12.8 µM (inactive); with OVCAR-8, 17.5 µM (inactive); in the experiment on KM12, 17.8 µM (inactive); in the experiment with OVCAR-4, 17.9 µM (inactive); with SF-295 it was 17 µM (inactive). Besides, the GI50 was 12.2 µM (inactive) in the experiment on HCC 2998; 12.9 µM (inactive) with IGROV-1; 14.8 µM (inactive) in the experiment with M14; 12.6 µM (inactive) in the experiment with CAKI-1; 17.1 µM (inactive) in the experiment on TK-10; 19.5 µM (inactive) in the experiment with HCT-116. Moreover, the GI50 in the experiment on UACC-62 was 15.8 µM (inactive); in the experiment on 786-0, 16.1 µM (inactive); in the experiment on HOP-92, 10.8 µM (inactive); with NCI-H460 it was 16.6 µM (inactive).
As for `COc1cc(NCC(C#N)C#N)ccc1/N=N/c1ccc([N+](=O)[O-])cc1`, the GI50 in the experiment with ACHN, with HT-29, in the experiment on OVCAR-8, with KM12, with OVCAR-4 and with SF-295 was > 100 µM (inactive) in each case. In addition, the GI50 in the experiment on HCC 2998, in the experiment on IGROV-1, in the experiment on M14, in the experiment on CAKI-1, with TK-10 and in the experiment with HCT-116 was > 100 µM (inactive) in each case. Moreover, the GI50 in the experiment with UACC-62, in the experiment with 786-0, in the experiment with LOX IMVI and in the experiment on NCI-H460 was > 100 µM (inactive) in each case.
As to `COc1ccc2cc3[n+](cc2c1O)CCc1cc2c(cc1-3)OCO2` [BERBERRUBINE CHLORIDE], the GI50 is 79.8 µM (inactive) in the experiment on ACHN; 96.4 µM (inactive) in the experiment on HT-29; > 100 µM (inactive) in the experiment on OVCAR-8; > 100 µM (inactive) in the experiment with KM12; > 100 µM (inactive) in the experiment on OVCAR-4; > 100 µM (inactive) in the experiment on SF-295. Further, the GI50 with HCC 2998 is > 100 µM (inactive); in the experiment on IGROV-1 it was > 100 µM (inactive); with M14, > 100 µM (inactive); with TK-10, > 100 µM (inactive); in the experiment with HCT-116, 83 µM (inactive); in the experiment with UACC-62 it was > 100 µM (inactive). For the same molecule, the values for the GI50 with 786-0, with LOX IMVI and in the experiment with NCI-H460 were > 100 µM (inactive), 40.4 µM (inactive) and 54 µM (inactive), respectively.
Turning to `CCCN1CN(C(C(=O)N[C@@H]2C(=O)N3C2SC(C)(C)C3C(=O)O)c2ccccc2)CSC1=S` (stereo partly specified), the GI50 in the experiment on ACHN was > 100 µM (inactive); with HT-29 it was 48.1 µM (inactive); with OVCAR-8 it was > 100 µM (inactive); with KM12 it was > 100 µM (inactive); with OVCAR-4 it was > 100 µM (inactive); with SF-295, > 100 µM (inactive). Besides, the GI50 in the experiment with IGROV-1 is > 100 µM (inactive); in the experiment on M14 it was > 100 µM (inactive); in the experiment on CAKI-1 it was > 100 µM (inactive); in the experiment with TK-10, > 100 µM (inactive); with HCT-116, 57.1 µM (inactive); in the experiment with UACC-62, > 100 µM (inactive). Also, the GI50 is > 100 µM (inactive) with 786-0, > 100 µM (inactive) in the experiment with HOP-92, 50.9 µM (inactive) in the experiment on LOX IMVI and > 100 µM (inactive) in the experiment on NCI-H460.
Consider `CCOc1ccc(/C=C/C(=O)c2sc(NNC(C)=O)nc2C)cc1`, for which the GI50 in the experiment with ACHN, in the experiment with HT-29, in the experiment on OVCAR-8, with KM12, in the experiment with SF-295 and in the experiment on HCC 2998 was > 100 µM (inactive) throughout. In addition, the GI50 in the experiment on IGROV-1, in the experiment on CAKI-1, with TK-10, with UACC-62, in the experiment on 786-0 and in the experiment with HOP-92 was > 100 µM (inactive) each time. Besides, the GI50 with LOX IMVI and in the experiment on NCI-H460 was > 100 µM (inactive) in each case.
With `NC(CCc1ncc(-c2ccccc2)s1)C(=O)O` (stereo unspecified), the GI50 with ACHN, in the experiment on HT-29, with OVCAR-8, in the experiment with KM12, with SF-295 and in the experiment with HCC 2998 was > 100 µM (inactive) throughout. For the same molecule, the GI50 in the experiment on IGROV-1, in the experiment with M14, in the experiment on CAKI-1, in the experiment on TK-10, with HCT-116 and in the experiment with UACC-62 was > 100 µM (inactive) in each case. Moreover, the GI50 with 786-0, in the experiment on HOP-92, with LOX IMVI and in the experiment with NCI-H460 was > 100 µM (inactive) throughout.
On to `N=c1oc2c(O)c(O)ccc2cc1C(N)=O`, for which the GI50 with ACHN is > 100 µM (inactive); with HT-29, > 100 µM (inactive); with OVCAR-8 it was 24.5 µM (inactive); with KM12, > 100 µM (inactive); with OVCAR-4, 17.5 µM (inactive); with SF-295, 33.6 µM (inactive). The GI50 with HCC 2998 is > 100 µM (inactive); with IGROV-1, > 100 µM (inactive); in the experiment on M14, 43 µM (inactive); with CAKI-1 it was > 100 µM (inactive); in the experiment with TK-10 it was > 100 µM (inactive); in the experiment with HCT-116, 51.1 µM (inactive). The GI50 with UACC-62 was 35.1 µM (inactive); in the experiment on 786-0 it was 12 µM (inactive); in the experiment on HOP-92 it was > 100 µM (inactive); in the experiment with NCI-H460 it was > 100 µM (inactive).

The values are drawn from ChEMBL document CHEMBL1201862, “PubChem BioAssay data set” (2004).
